Laboratory results reported in paper PMC10494213 (iScience, 2023).
“Also recorded” adds a separate entry of the source.

Legend:
[1] = cited from earlier work
Glu = details: zebrafish embryos, CMZ 1, 10, 100 μg/L; cited from earlier work
glutamic acid (Glu) = assay: Glu level in whole zebrafish by ELISA after 7-day CMZ exposure; format: in vivo; details: seven days of CMZ exposure vs control group (p<0.05; 1000 μg/L p<0.01)
[2] = test system: acetylcholinesterase (AChE); assay: AChE in whole zebrafish by ELISA after 7-day CMZ exposure; format: in vivo; details: 7-day exposure 1, 10, 100, 1000 μg/L vs control group
[3] = test system: gamma-aminobutyric acid (GABA); assay: GABA level in whole zebrafish by ELISA after 7-day CMZ exposure; format: in vivo; details: seven days of CMZ exposure vs control group (p<0.05; 1000 μg/L p<0.01)
GABA = details: zebrafish embryos, CMZ 1, 10, 100 μg/L; cited from earlier work
zebrafish larvae = assay: Zebrafish larval motor behavior; format: in vivo; details: 7 days exposure
[4] = Measured fish plasma concentration; format: in vivo, zebrafish (Danio rerio); details: for Measured FPC/Predicted FPC / Measured FPC: 7-day exposure; for Measured FPC: mean ± SD, n = 3
AChE = details: muscle (10000 μg/L) and head (10 and 10000 μg/L), exposure of 63 days, p<0.05; cited from earlier work
[5] = test system: zebrafish embryos and larvae; details: 1 μg/L; cited from earlier work
[6] = human; cited from earlier work
[7] = Uptake of CMZ in zebrafish muscle during 7-day water exposure; format: in vivo, zebrafish (Danio rerio); details: male, other: water exposure (waterborne); for concentration at 7 d: muscle; for Kp at 7 d: muscle/plasma
acetylcholine (ACh) = assay: ACh level in whole zebrafish by ELISA after 7-day CMZ exposure; format: in vivo; details: 7-day exposure 1, 10, 100, 1000 μg/L vs control group
spermatozoa = details: 2.0 and 20 mg/L; cited from earlier work
abat = assay: Real-time PCR of neurotransmitter-related gene abat; format: in vivo, zebrafish; details: seven days, four concentrations (1, 10, 100, 1000 μg/L) vs control, p<0.05
[8] = carp, Coote natural Marsh in Canada; cited from earlier work
fish = details: cited from earlier work
[9] = EEC 3, 10, 30 μg/L; cited from earlier work

Q: With `CCC(=O)OCC(=O)[C@@]1(OC(=O)CC)[C@@H](C)C[C@H]2[C@@H]3CCC4=CC(=O)C=C[C@]4(C)[C@@]3(Cl)[C@@H](O)C[C@@]21C` [Beclomethasone Dipropionate, beclomethasone dipropionate] as the compound, how does the “log Kow” value [1] read?
A: 3.69

Q: With `NC(=O)N1c2ccccc2C=Cc2ccccc21` [CMZ, Carbamazepine] as the compound, how does the Glu concentration (Glu) read?
A: reduced

Q: What about the Glu level (glutamic acid (Glu)) of the same compound?
A: appreciably increased

Q: And the “level of AChE” value [2]?
A: gradually decreased; also recorded: significantly decreased

Q: And the GABA level [3]?
A: appreciably increased

Q: And the GABA concentration (GABA)?
A: increased

Q: What about the “total movement distance of the larvae” value (zebrafish larvae; 1000 μg/L, p<0.05) of the same compound?
A: significantly higher than that of the control group

Q: What about the “total distance traveled by larvae” value (zebrafish larvae; 1, 10, 100 μg/L, p>0.05) of the same compound?
A: slightly lower than that of the control group, but there was no significant difference

Q: What about the “Measured FPC/Predicted FPC” value ([4]; external 1 μg/L) of the same compound?
A: 1.84 ± 0.27

Q: And the “Measured FPC” value ([4]; external 1 μg/L (nominal))?
A: 25.47 ± 3.78 µg/L

Q: And the “Measured FPC” value ([4]; external 10 μg/L (nominal))?
A: 1311.10 ± 80.26 µg/L

Q: What about the “Measured FPC/Predicted FPC” value ([4]; external 100 μg/L) of the same compound?
A: 2.14 ± 0.08

Q: And the “Measured FPC” value ([4]; external 100 μg/L (nominal))?
A: 2953.30 ± 109.20 µg/L

Q: What about the “Measured FPC/Predicted FPC” value ([4]; external 1000 μg/L) of the same compound?
A: 0.31 ± 0.01

Q: And the “measured FPC value as share of the predicted value” ([4]; external 1000 μg/L)?
A: 31.05%

Q: And the concentration at 7 d ([4]; male, AB, zebrafish, plasma, other: water exposure (waterborne), corresponding FPCs, low ambient exposure 1 and 10 μg/L)?
A: 25.5 to 1310 ng/mL

Q: What about the ER values ([4]; ratio of HTPC and FSSPC, Equation 3, all exposure concentrations) of the same compound?
A: < 1000

Q: And the AChE activity (AChE)?
A: considerably increased

Q: And the “movement and rest percentage of zebrafish embryos and larvae” value [5]?
A: significantly affected

Q: And the “maximum HTPC” value [6]?
A: 12 mg/L

Q: And the concentration at 7 d ([7]; 10 μg/L)?
A: 35.4 ± 7.9 ng/g

Q: And the concentration at 7 d ([7]; 100 μg/L)?
A: 420 ± 77.5 ng/g

Q: What about the concentration at 7 d ([7]; 1000 μg/L) of the same compound?
A: 2330 ± 127 ng/g

Q: What about the Kp at 7 d ([7]; 10 μg/L) of the same compound?
A: 0.26 ± 0.06

Q: What about the Kp at 7 d ([7]; 100 μg/L) of the same compound?
A: 0.14 ± 0.03

Q: What about the Kp at 7 d ([7]; 1000 μg/L) of the same compound?
A: 0.54 ± 0.03

Q: What about the Dlipw ([1]; pH 7.4, ref http://www.chemspider.com/Chemical) of the same compound?
A: 2.92

Q: What about the “level of ACh” value (acetylcholine (ACh)) of the same compound?
A: gradually decreased; also recorded: significantly decreased

Q: What about the “percentage of spermatozoa motile and velocity” value (spermatozoa) of the same compound?
A: significantly reduce

Q: What about the “expression of the abat gene” value (abat) of the same compound?
A: significantly down-regulated

Q: With `C#C[C@]1(O)CC[C@H]2[C@@H]3CCC4=CC(=O)CC[C@@H]4[C@H]3CC[C@@]21CC` [Levonorgestrel] as the compound, how does the “log Kow” value [1] read?
A: 3.72

Q: With `CCN(CC)C(=O)c1cccc(C)c1` [N,N-diethyl-m-toluamide] as the compound, how does the “measured BCFs relative to the predicted BCFs” value [8] read?
A: ≤ 3 times

Q: With `O=C1Nc2ccc(Cl)cc2C(c2ccccc2)=NC1O` (stereo not shown) [Oxazepam] as the compound, how does the “behavior in the novel tank diving test” value (fish; fish exposed to 4.7 μg/L) read?
A: statistically significant behavioral effect

Q: For `CN[C@H]1CC[C@@H](c2ccc(Cl)c(Cl)c2)c2ccccc21` [Sertraline], which shelter-seeking behavior (fish; when the FPC exceeded the human therapeutic threshold) is on record?
A: statistically significant reductions

Q: And the “Predicted FPC vs Measured FPC” value [9]?
A: very close

Q: Which “measured BCFs relative to the predicted BCFs” value [8] does the source give for `O=C1NC(=O)C(c2ccccc2)(c2ccccc2)N1` [phenytoin] here?
A: ≤ 3 times

Q: Which “measured BCFs relative to the predicted BCFs” value [8] does the source give for `O=C(Nc1ccc(Cl)cc1)Nc1ccc(Cl)c(Cl)c1` [triclocarban] here?
A: ≤ 3 times
